According to PMC9880438, “Pharmacokinetics of active compounds of a Terminalia chebula Retz. Ethanolic extract after oral administration rats using UPLC-MS/MS” (Frontiers in Pharmacology, 2023):
Like-named read-outs stand apart in the source and are kept apart here.

How the values were obtained:
[1] = Stability of QC samples of the analytes in rat plasma under storage conditions; format: physicochemical; conditions: n = 6
Experimental: Preparation of quality control (QC) samples with three concentrations (low, medium, and high) of 16, 160, and 3,200 ng/ml for ellagic acid; 1.6, 16, 320 ng/ml for protocatechuic acid, ethyl gallate and 1,2,3,4,6-O-pentagalloylglucose; 40, 400 and 8,000 ng/ml for chebulic acid, gallic acid, corilagin and chebulinic acid and 160, 1,600, 32000 ng/ml for chebulagic acid. Both QC samples and stock solutions were stored in a refrigerator at 4°C.
Under variable treatment conditions: stored for 12 h at auto-sampler, for 4 hours at room temperature, under three freeze-thaw cycles, and kept at −80°C for 7 days, quality control samples were analyzed to assess the stability of the nine analytes in plasma.

[2] = rat, in vivo, po
Experimental: (§1) UPLC-MS/MS system was used for analysis and monitoring, which consisted primarily of an Agilent 1290 UPLC system (Agilent Technologies, Germany) and an Agilent 6,470 series triple quad (TQ) mass spectrometer (MS) (Agilent Technologies, Singapore) equipped with an electrospray ionization source.
(§2) Separation was carried out on an ACQUITY UPLC® HSS T3 column (2.1 × 100 mm, 1.8 μm), and temperature in the column was kept at 20°C. In the mobile phase, 0.1% formic acid in water and acetonitrile were used as solvents A and B, respectively. Gradient elution was performed as follows: 1%–5% B at 0–3 min; 5%–30% B at 3–4 min; 30%–40% B at 4–8 min; 40%–100% B at 8–9 min; 100%–100% B at 9–12 min. The flow rate was set at 0.3 ml/min and the injection volume was 10 μL.
(§3) Multiple reaction monitoring (MRM) was used for quantitative analysis in negative (−) ionization mode. The mass spectrometric parameters were set as follows: drying gas (N2) temperature was 300°C; gas (N2) flow rate was 7 L/min; atomizer pressure was 35 psi; sheath gas flow was 11 L/min and capillary voltage was 3800 V. The specific mass spectrometric parameters of the precursor ion, product ion, fragmentor, collision energy, and ion modes of the nine compounds and IS are shown in Table 1.
(§4) The plasma sample (100 μl) was sequentially spiked with 20 μl IS solutions (caffeic acid, 1,000 ng/ml); 20 μL methanol, and 10 μl formic acid, then vortex-mixed for 1 min. The mixture was precipitated protein with 1,000 μl methanol by vortex mixing for 3 min. The supernatant was collected into a 1.5 ml clean centrifuge tube after centrifugation at for 10 min 14,000 rpm, and evaporated under a nitrogen stream until dry. After that, the residue was redissolved in 100 μl methanol, vortex-mixed for 3 min, then centrifuged for 10 min at 14,000 rpm. 10 μl analyte was injected into the UPLC-MS/MS system.
(§5) In this study, six of male rats were used, given free access to water, and fasted for 12 h before the experimental period. The TC extracts were dissolved in 0.5% CMC-Na aqueous solution as a suspension at a concentration of 1 g/ml. A dose of 10 g/kg of the suspension was administered to the rats orally, the blood samples of approximately 300 μL were drawn from the fundus venous plexus of rats pre- and post-oral administration at 0.00, 0.08, 0.17, 0.25, 0.50, 0.75, 1, 2, 4, 6, 8, 10, 12, 24, 36, 48, 60, 72, 84, 96, 120, 144 and 168 h, respectively. For analysis, the plasma supernatants collected from the centrifuged plasma were frozen at −80°C after centrifugation for 10 min at 6,000 rpm.
(§6) Data were expressed as mean ± standard deviation (mean ± SD). MassHunter Workstation software (version B.09.00) was quantitatively used to calculate the plasma concentrations of nine analytes. To evaluate the specific pharmacokinetic parameters, DAS Software (DAS 3.0, Medical College of Wannan, China) was used to process the pharmacokinetic results.

[3] = set-up: method as in Mishra et al., 2013; conditions: dose of 40 mg/kg; ref Mishra et al., 2013; cited from earlier work
[4] = Pharmacokinetic study in rats after oral administration of TC extracts (UPLC-MS/MS of plasma); conditions: for AUC / AUC(0-inf) / Cmax / MRT / MRT inf / Tmax / half-life: male, Sprague-Dawley, rat, plasma, po, 10 g/kg
Experimental: as §1, §2, §3, §4, §5, §6

[5] = in vivo; conditions: male, Sprague-Dawley, rat, po, 10 g/kg
Experimental: as §1, §2, §3, §4, §5, §6

[6] = spiked 40 ng/mL, autosampler for 12 h
[7] = spiked 40 ng/mL, room temperature for 4 h
[8] = spiked 40 ng/mL, three freeze-thaw cycles
[9] = spiked 40 ng/mL, −80°C for 7 days
[10] = spiked 400 ng/mL, autosampler for 12 h
[11] = spiked 400 ng/mL, room temperature for 4 h
[12] = spiked 400 ng/mL, three freeze-thaw cycles
[13] = spiked 400 ng/mL, −80°C for 7 days
[14] = spiked 8,000 ng/mL, autosampler for 12 h
[15] = spiked 8,000 ng/mL, room temperature for 4 h
[16] = spiked 8,000 ng/mL, three freeze-thaw cycles
[17] = spiked 8,000 ng/mL, −80°C for 7 days
[18] = spiked 16 ng/mL, autosampler for 12 h
[19] = spiked 16 ng/mL, room temperature for 4 h
[20] = spiked 16 ng/mL, three freeze-thaw cycles
[21] = spiked 16 ng/mL, −80°C for 7 days
[22] = spiked 1.6 ng/mL, autosampler for 12 h
[23] = spiked 1.6 ng/mL, room temperature for 4 h
[24] = spiked 1.6 ng/mL, three freeze-thaw cycles
[25] = spiked 1.6 ng/mL, −80°C for 7 days
[26] = spiked 320 ng/mL, autosampler for 12 h
[27] = spiked 320 ng/mL, room temperature for 4 h
[28] = spiked 320 ng/mL, three freeze-thaw cycles
[29] = spiked 320 ng/mL, −80°C for 7 days

Compound	Measured concentration after storage [1, 6] [ng/mL]	Measured concentration after storage [1, 7] [ng/mL]	Measured concentration after storage [1, 8] [ng/mL]	Measured concentration after storage [1, 9] [ng/mL]	Measured concentration after storage [1, 10] [ng/mL]	Measured concentration after storage [1, 11] [ng/mL]	Measured concentration after storage [1, 12] [ng/mL]	Measured concentration after storage [1, 13] [ng/mL]	Measured concentration after storage [1, 14]	Measured concentration after storage [1, 15]	Measured concentration after storage [1, 16]	Measured concentration after storage [1, 17]	AUC [4] [ng·h/mL]	AUC(0-inf) [4] [ng·h/mL]	Cmax [4] [ng/mL]	MRT [4] [h]	MRT inf [4] [h]	Tmax [4] [h]	half-life [4] [h]	Measured concentration after storage [1, 18] [ng/mL]	further results
O=C(O)C[C@H](C(=O)O)[C@H]1c2c(cc(O)c(O)c2O)C(=O)O[C@@H]1C(=O)O [Chebulic acid, chebulic acid]	35.6 ± 3.9	39.9 ± 1.9	40.1 ± 3.3	37.5 ± 2.1	393.3 ± 52.6	395.7 ± 29.7	398.4 ± 12.2	364.4 ± 17.5	8,230.9 ± 726.4 ng/mL	7,996.4 ± 517.7 ng/mL	7,691 ± 316.7 ng/mL	6,878.6 ± 535.3 ng/mL	–	–	–	–	–	–	–	–	T1/2 [2]: 1.51 h; AUC (0-tn) ([2]; 10 g/kg): 29045.30 ± 4,395.44 h·ng/mL; AUC (0-∞) ([2]; 10 g/kg): 34069.03 ± 6,641.84 h·ng/mL; Cmax ([2]; 10 g/kg): 1927.06 ± 572.23 ng/mL; MRT (0-tn) ([2]; 10 g/kg): 33.56 ± 3.77 h; MRT (0-∞) ([2]; 10 g/kg): 77.92 ± 22.14 h; T1/2 ([2]; 10 g/kg): 6.60 ± 4.36 h; Tmax ([2]; 10 g/kg): 1.67 ± 0.52 h
O=C(O)C[C@@H]1C(=O)O[C@H]2[C@H](OC(=O)c3cc(O)c(O)c(O)c3)[C@@H](OC(=O)c3cc(O)c(O)c4c3[C@H]1[C@H](O)C(=O)O4)[C@H](OC(=O)c1cc(O)c(O)c(O)c1)O[C@@H]2COC(=O)c1cc(O)c(O)c(O)c1 [Chebulinic acid, chebulinic acid]	42.2 ± 5.1	36.8 ± 3.9	41.8 ± 2.3	47.1 ± 1.6	359.7 ± 18.1	414.3 ± 21.9	378.1 ± 29.2	373.5 ± 23.6	7,174.2 ± 321.2 ng/mL	8,592.3 ± 543.8 ng/mL	8,447.4 ± 574.6 ng/mL	8,787.4 ± 801 ng/mL	38200 ± 16300	41900 ± 15800	853 ± 433	58.2 ± 5.63	76 ± 15.3	1.83 ± 0.41	43.3 ± 13.2	–	Anti-gastric ulcer effect [3]: good anti-gastric ulcer effect
O=C(O[C@@H]1O[C@@H]2COC(=O)c3cc(O)c(O)c(O)c3-c3c(cc(O)c(O)c3O)C(=O)O[C@H]([C@H]1O)[C@@H]2O)c1cc(O)c(O)c(O)c1 [Corilagin, corilagin]	38.8 ± 1.2	39.6 ± 3.0	42.8 ± 2.4	39.7 ± 2.1	435.7 ± 34.5	398.2 ± 34.3	405.3 ± 6.0	395.6 ± 7.2	7,335.4 ± 704.5 ng/mL	8,930.5 ± 535.3 ng/mL	8,802.7 ± 713.0 ng/mL	8,304.6 ± 362.4 ng/mL	16700 ± 12400	17400 ± 12500	591 ± 203	53.5 ± 4.12	99.4 ± 46.2	1.67 ± 0.52	26.4 ± 22.2	–	–
O=c1oc2c(O)c(O)cc3c(=O)oc4c(O)c(O)cc1c4c23 [Ellagic acid, ellagic acid]	–	–	–	–	–	–	–	–	–	–	–	–	6810	7340	390 ± 80.5	45.9 ± 8.13	56.5 ± 13	0.97 ± 0.84	8.23 ± 8.95	17.6 ± 1.6	Measured concentration after storage [1, 19]: 17.5 ± 1.7 ng/mL; Measured concentration after storage [1, 20]: 16.9 ± 1.4 ng/mL; Measured concentration after storage [1, 21]: 16.8 ± 1.0 ng/mL; Measured concentration after storage ([1]; spiked 160 ng/mL, autosampler for 12 h): 154.8 ± 13.9 ng/mL; Measured concentration after storage ([1]; spiked 160 ng/mL, room temperature for 4 h): 156.3 ± 17.8 ng/mL; Measured concentration after storage ([1]; spiked 160 ng/mL, three freeze-thaw cycles): 171.8 ± 10.5 ng/mL; Measured concentration after storage ([1]; spiked 160 ng/mL, −80°C for 7 days): 163.8 ± 4.3 ng/mL; Measured concentration after storage ([1]; spiked 3,200 ng/mL, autosampler for 12 h): 3,450.0 ± 313.1 ng/mL; Measured concentration after storage ([1]; spiked 3,200 ng/mL, room temperature for 4 h): 3,437.2 ± 188 ng/mL; Measured concentration after storage ([1]; spiked 3,200 ng/mL, three freeze-thaw cycles): 3,438.7 ± 285.7 ng/mL; Measured concentration after storage ([1]; spiked 3,200 ng/mL, −80°C for 7 days): 3,594.0 ± 81.5 ng/mL; Shape of plasma concentration-time curve ([4]; rat plasma, oral TC extracts, Figure 2): double peaks phenomenon
CCOC(=O)c1cc(O)c(O)c(O)c1 [Ethyl gallate, ethyl gallate]	–	–	–	–	–	–	–	–	–	–	–	–	16.9 ± 8.28	16.9 ± 8.2	12.5 ± 4.38	1.55 ± 0.42	1.6 ± 0.4	0.63 ± 0.26	2.08 ± 2.16	16.3 ± 2.6	Measured concentration after storage [1, 22]: 1.7 ± 0.2 ng/mL; Measured concentration after storage [1, 23]: 1.4 ± 0.1 ng/mL; Measured concentration after storage [1, 24]: 1.6 ± 0.1 ng/mL; Measured concentration after storage [1, 25]: 1.6 ± 0.1 ng/mL; Measured concentration after storage [1, 19]: 14.6 ± 1.9 ng/mL; Measured concentration after storage [1, 20]: 13.6 ± 1.2 ng/mL; Measured concentration after storage [1, 21]: 14.2 ± 0.4 ng/mL; Measured concentration after storage [1, 26]: 323.3 ± 13.8 ng/mL; Measured concentration after storage [1, 27]: 345.6 ± 14.7 ng/mL; Measured concentration after storage [1, 28]: 328.6 ± 17.1 ng/mL; Measured concentration after storage [1, 29]: 307.4 ± 29.5 ng/mL
O=C(O)c1cc(O)c(O)c(O)c1 [Gallic acid, gallic acid]	34.9 ± 5.1	35.5 ± 1.0	41.0 ± 2.8	41.2 ± 0.8	431.7 ± 27.3	385 ± 36.1	393.9 ± 35.3	358.6 ± 21.8	8,051.6 ± 602.3 ng/mL	8,051.2 ± 472.7 ng/mL	8,222.3 ± 456.3 ng/mL	8,304.7 ± 418.5 ng/mL	–	–	–	–	–	–	–	–	T1/2 ([2]; male, Sprague-Dawley): 2.06 h; AUC [5]: 16000 ng·h/mL; AUC(0-inf) [5]: 16000 ng·h/mL; Cmax [5]: 2230 ng/mL; MRT [5]: 6.58 ± 1.07 h; MRT inf [5]: 6.58 ± 1.07 h; Tmax [5]: 1.17 ± 0.41 h; half-life [5]: 1.51 ± 0.43 h
O=C(O)c1ccc(O)c(O)c1 [Protocatechuic acid, protocatechuic acid]	–	–	–	–	–	–	–	–	–	–	–	–	70.8 ± 16.6	70.8 ± 16.6	24.7 ± 3.27	3.39 ± 0.83	3.39 ± 0.83	0.54 ± 0.1	2.06 ± 0.76	14.5 ± 2.0	Measured concentration after storage [1, 22]: 1.7 ± 0.2 ng/mL; Measured concentration after storage [1, 23]: 1.6 ± 0.1 ng/mL; Measured concentration after storage [1, 24]: 1.8 ± 0.1 ng/mL; Measured concentration after storage [1, 25]: 1.5 ± 0.2 ng/mL; Measured concentration after storage [1, 19]: 16.4 ± 0.6 ng/mL; Measured concentration after storage [1, 20]: 13.9 ± 0.7 ng/mL; Measured concentration after storage [1, 21]: 13.1 ± 1.2 ng/mL; Measured concentration after storage [1, 26]: 305.9 ± 15.9 ng/mL; Measured concentration after storage [1, 27]: 297.9 ± 8.4 ng/mL; Measured concentration after storage [1, 28]: 330.3 ± 18.5 ng/mL; Measured concentration after storage [1, 29]: 334.2 ± 8.0 ng/mL
